The target in one assay is T1, RDL receptor (WT) (Drosophila melanogaster, UniProt P25123).
T1 sequence (P25123 45-606): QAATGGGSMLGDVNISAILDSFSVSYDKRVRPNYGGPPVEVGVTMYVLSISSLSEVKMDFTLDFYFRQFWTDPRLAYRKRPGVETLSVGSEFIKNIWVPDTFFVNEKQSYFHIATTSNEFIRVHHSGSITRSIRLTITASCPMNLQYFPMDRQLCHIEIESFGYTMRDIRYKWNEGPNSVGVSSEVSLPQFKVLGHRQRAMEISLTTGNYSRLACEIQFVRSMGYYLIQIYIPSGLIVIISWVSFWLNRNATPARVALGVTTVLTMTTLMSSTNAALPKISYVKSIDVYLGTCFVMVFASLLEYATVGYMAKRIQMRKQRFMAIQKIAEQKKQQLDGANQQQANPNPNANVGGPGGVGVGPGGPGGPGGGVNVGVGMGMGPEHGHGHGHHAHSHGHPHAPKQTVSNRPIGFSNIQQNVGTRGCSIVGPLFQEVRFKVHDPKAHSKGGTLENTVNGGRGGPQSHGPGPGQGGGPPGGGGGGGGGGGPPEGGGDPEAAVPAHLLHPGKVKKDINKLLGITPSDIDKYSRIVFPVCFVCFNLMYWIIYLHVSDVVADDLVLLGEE
Put plainly: GABA-induced currents, voltage clamp of Xenopus oocytes expressing wild type RDL. In kind it is cell-based. The following applies: Hill coefficient, mean ± SEM.

Another assay concerns the target RDL receptor F206A (Drosophila melanogaster, UniProt P25123, F206A). The assay can be described thus: GABA-induced currents in oocytes, RDL F206A. In kind it is cell-based. Conditions: Phe206 substituted with Ala, compared to WT.
In another assay the target is RDL receptor F206Y (Drosophila melanogaster, UniProt P25123, F206Y). The assay can be described thus: GABA-induced currents in oocytes, RDL F206Y. In kind it is cell-based.
Sequence of RDL receptor F206Y (P25123 45-606 F206Y): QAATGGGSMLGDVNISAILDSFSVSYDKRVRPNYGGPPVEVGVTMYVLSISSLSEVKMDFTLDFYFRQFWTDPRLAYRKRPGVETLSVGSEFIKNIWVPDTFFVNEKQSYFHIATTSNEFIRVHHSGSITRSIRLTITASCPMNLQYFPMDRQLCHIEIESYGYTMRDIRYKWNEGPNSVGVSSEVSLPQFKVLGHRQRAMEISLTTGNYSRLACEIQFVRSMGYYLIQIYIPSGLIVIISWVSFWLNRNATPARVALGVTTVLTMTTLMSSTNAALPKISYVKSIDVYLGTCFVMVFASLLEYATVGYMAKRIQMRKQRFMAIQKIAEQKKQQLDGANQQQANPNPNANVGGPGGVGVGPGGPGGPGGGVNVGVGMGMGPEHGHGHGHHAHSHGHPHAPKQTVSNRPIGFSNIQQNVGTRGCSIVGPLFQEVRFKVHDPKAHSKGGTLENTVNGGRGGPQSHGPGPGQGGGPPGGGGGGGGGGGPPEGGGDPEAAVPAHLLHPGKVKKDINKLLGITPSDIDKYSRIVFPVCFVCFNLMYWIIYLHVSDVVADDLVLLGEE
Another assay concerns the target RDL receptor Y254A (Drosophila melanogaster, UniProt P25123, Y254A). The assay can be described thus: GABA-induced currents in oocytes, RDL Y254A. In kind it is cell-based. Conditions: Tyr254Ala receptors, GABA up to 100 mM.
The target of the next assay is RDL receptor Y254F (Drosophila melanogaster, UniProt P25123, Y254F). The assay can be described thus: GABA-induced currents in oocytes, RDL Y254F. Format: cell-based.
Sequence of RDL receptor Y254F (P25123 45-606 Y254F): as the sequence (P25123 45-606 F206Y) above, with Y162F, Y210F counted along it
For a further assay, the target named is RDL receptor F206Y/Y254F (Drosophila melanogaster, UniProt P25123, F206Y/Y254F). Put plainly: GABA-induced currents in oocytes, RDL F206Y/Y254F. Format: cell-based. The following applies: Hill coefficient.
Sequence of RDL receptor F206Y/Y254F (P25123 45-606 F206Y/Y254F): as the sequence (P25123 45-606 F206Y) above, with Y210F counted along it
A further assay deals with RDL receptor F146A (Drosophila melanogaster, UniProt P25123, F146A). The assay can be described thus: GABA-induced currents in oocytes, RDL F146A. Format: cell-based.
Sequence of RDL receptor F146A (P25123 45-606 F146A): as the sequence (P25123 45-606 F206Y) above, with F102A, Y162F counted along it
Assay [1] concerns RDL mutant (TAG) mRNA without aminoacylated tRNA. In kind it is cell-based, Drosophila. Conditions: 5 mM GABA; mutant mRNA alone or with tRNA-dCA with no amino acid attached.
Another assay concerns RDL receptor F206-FPhe. The following applies: Hill coefficient, GABA.
The next assay concerns RDL receptor F206-F2Phe. Conditions: Hill coefficient, GABA.
Another assay concerns RDL receptor F206-F3Phe. Conditions: Hill coefficient, GABA.
A further assay concerns RDL receptor Y254-FPhe. Conditions: Hill coefficient, GABA.
A further assay relates to RDL receptor Y254F2-Phe. The following applies: Hill coefficient, GABA.
The next assay deals with RDL receptor Y254F3-Phe. The following applies: Hill coefficient, GABA.
In another assay the test system is RDL receptor F146F3Phe. The following applies: Hill coefficient, GABA.
Another assay relates to GABAA receptor. The following applies: GABA-activated GABAA receptor; ref Padgett et al., 2007; cited from earlier work.
Another assay deals with GABAC receptor. The following applies: GABA-activated GABAC receptor; ref Lummis et al., 2005; cited from earlier work.
The test system of the next assay is RDL receptor. Conditions: homomers in Xenopus oocytes; ref Zhang et al., 1994; cited from earlier work.

Sequence of RDL receptor Y254A (P25123 45-606 Y254A): as the sequence (P25123 45-606 F206Y) above, with Y162F, Y210A counted along it
Sequence of RDL receptor F206A (P25123 45-606 F206A): as the sequence (P25123 45-606 F206Y) above, with Y162A counted along it

Consider `NCCCC(=O)O` [GABA], for which the nH was 1.4 ± 0.2 at RDL receptor (WT); 2.2 ± 0.3 at RDL receptor F206Y (Hill coefficient, F206Y); 2.1 ± 0.4 on RDL receptor Y254F (Hill coefficient, Y254F); 1.9 ± 0.5 at RDL receptor F206Y/Y254F; 2.1 ± 0.2 at RDL receptor F146A (Hill coefficient, GABA, F146A); 1.8 ± 0.3 with RDL receptor F206-FPhe. In addition, the nH in the assay with RDL receptor F206-F2Phe was 1.8 ± 0.3; in the assay on RDL receptor F206-F3Phe, 2.0 ± 0.4; with RDL receptor Y254-FPhe, 1.3 ± 0.4; in the assay with RDL receptor Y254F2-Phe, 1.1 ± 0.2; in the assay with RDL receptor Y254F3-Phe it was 1.2 ± 0.3; in the assay with RDL receptor F146F3Phe, 1.4 ± 0.4. Moreover, the “increase in EC50” value is reported as ~50 fold at RDL receptor F206A and ~4 fold at RDL receptor Y254F (Tyr254 substituted with Phe, compared to WT). Moreover, the “decrease in EC50 compared to WT” value on RDL receptor F206Y (Phe206Tyr) is ~200 fold. Besides, the “response to GABA” value at RDL receptor Y254A is listed as “did not respond”. On RDL receptor F146A (Phe146 substituted with Ala, compared to WT), the “increase in GABA EC50” value is reported as < 4 fold. Also, the “currents in response to GABA” value in [1] is reported as “No currents”. Further, the “slope of fluorination plot” value in the assay with GABAA receptor is 0.29; in the assay with GABAC receptor, 0.21.
Consider picrotoxin, for which the “inhibition of RDL receptors” value in the assay with RDL receptor is “inhibited”.
